Publication PMC9124651, “High-performance thin-layer chromatography in combination with an acetylcholinesterase-inhibition bioassay with pre-oxidation of organothiophosphates to determine neurotoxic effects in storm, waste, and surface water” (Analytical and Bioanalytical Chemistry, 2022)
In brackets after ≈: the same amount, converted by molar mass.

Experiments:
[1] = target: T1, AChE from electric eel (Electrophorus electricus) (Electrophorus electricus, UniProt O42275); experiment: AChE-inhibition microtiter assay (Ellman, 96-well, with or without NBS oxidation); assay type: biochemical; details: for IC80 / IC20: no oxidation, 4-PL fit, n = 4; for IC80: read-out: IC20 (inhibition concentration for 20% AChE activity), best fit; for IC20: read-out: IC80 (inhibition concentration for 80% AChE activity), best fit
T1 construct: purchased Sigma-Aldrich GmbH (Steinheim, Germany)
T1 sequence (O42275 24-633): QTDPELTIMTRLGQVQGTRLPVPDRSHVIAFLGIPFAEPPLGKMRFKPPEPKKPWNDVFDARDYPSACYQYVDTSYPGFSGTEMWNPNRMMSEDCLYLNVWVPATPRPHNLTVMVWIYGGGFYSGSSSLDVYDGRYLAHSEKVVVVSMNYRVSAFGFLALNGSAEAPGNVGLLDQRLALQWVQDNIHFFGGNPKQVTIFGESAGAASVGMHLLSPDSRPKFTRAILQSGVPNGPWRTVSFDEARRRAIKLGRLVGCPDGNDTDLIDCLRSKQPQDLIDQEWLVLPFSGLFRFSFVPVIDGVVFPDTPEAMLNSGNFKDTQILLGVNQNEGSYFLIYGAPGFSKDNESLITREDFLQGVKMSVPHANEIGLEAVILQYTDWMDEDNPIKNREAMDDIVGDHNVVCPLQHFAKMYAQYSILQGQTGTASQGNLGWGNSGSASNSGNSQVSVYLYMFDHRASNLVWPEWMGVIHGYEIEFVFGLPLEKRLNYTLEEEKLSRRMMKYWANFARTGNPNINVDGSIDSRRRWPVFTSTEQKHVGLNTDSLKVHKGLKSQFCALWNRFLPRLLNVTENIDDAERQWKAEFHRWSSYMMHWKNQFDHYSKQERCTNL
Experimental: Stock solutions (1 mg/mL) of NBS and ascorbic acid were each freshly prepared before the test and then diluted to 10 µg/mL and 100 µg/mL, respectively. The assay was performed with modifications according to Ellman’s method. OTPs, oxons, water, and methanol blanks (15 µL) were each mixed with 15 µL of NBS (10 µg/mL) in a 96-well plate. After an incubation at room temperature for 5 min, the reaction was stopped by adding 15 µL ascorbic acid (100 µg/mL). For the test setup without oxidation, OTPs, oxons, water, and methanol blanks (15 µL) were mixed with 30 µL water per well. Subsequently, 200 µL of a DTNB solution (0.15 mM), buffered in TRIS/HCl at a pH of 7.4, was added to each well of both test setups. Then, 20 µL of an AChE solution (0.5 U/mL), also buffered in TRIS/HCl at a pH of 7.4, was added. An incubation at 30 °C for 30 min without shaking followed. An ATCL solution (0.8 mM) was freshly prepared with water and 30 µL per well was added after incubation. During another incubation at room temperature for 30 min, ATCL was cleaved by AChE into thiocholine and acetic acid. Thiocholine reacts with DTNB to 2-nitro-5-thiobenzoate. The absorbance of the yellow-colored anion was photometrically measured at 405 nm (Sunrise Remote, Tecan Group AG, Männedorf, Schweiz).
Dilution series with eight concentrations of the three OTPs and related oxons (Tab. S1) were freshly prepared from stock solutions (1–10 mg/mL) in methanol. The OTPs and oxons were tested in duplicates with and without prior oxidation in two measurements as described in the “AChE-inhibition microtiter assay” section. Eight water and eight methanol blanks were tested per test setup (oxidation and no oxidation). Of these, two were tested without AChE and two without ATCL. The mean AChE activity (absorption at 405 nm, n = 4) was related to the specific inhibitor dose. The statistic program Prism (version 5.00, Graph Pad Software, San Diego, USA) was used to generate dose–response curves (4-PL fit) and to determine inhibition concentrations (ICs) for the three OTPs and related oxons. The 95% confidence intervals of the curves and the standard deviations of the mean AChE activity were also calculated. The lower boundary of the curves is fixed to 0 and the highest mean activity defines 100%.

[2] = target: T1, AChE from electric eel (Electrophorus electricus); experiment: HPTLC-(Ox)-AChE-I assay, immersion method (plates immersed in AChE solution); assay type: biochemical; details: without oxidation; for IC10 (10% AChE inhibition), best fit / IC20 (20% AChE inhibition), best fit / IC50 (50% AChE inhibition), best fit / IC80 (80% AChE inhibition), best fit: OTPs 100 µL, oxons 10 µL applied, peak heights, n = 3
Experimental: LiChrospher 10 × 20 cm HPTLC Silica gel 60 F254s plates (Merck, Darmstadt, Germany) with a layer thickness of 170–190 µm and spherical silica particles with a size of 7 µm were used. The HPTLC plates were immersed twice in 2-propanol for 20 min, each time followed by a drying step at room temperature for 20 min. The plates then were pre-developed with methanol, dried for 20 min at room temperature, heated at 105 °C for 20 min, and stored in a desiccator for further use. The automatic TLC Sampler 4 (ATS 4, CAMAG AG, Muttenz, Switzerland) was used for sample application. The desired sample volumes were sprayed as 6-mm-wide bands onto the HPTLC plates with an application speed of 300 nL/s. The distances of the exterior bands from the edges of the plates were 15 mm. The distance from the bottom edge was 8 mm for all bands. Methanol was used as rinsing solvent. The following further application parameters were used: filling speed 15 µL/s, pre-dosage volume 200 nL, retraction volume 200 nL, rinsing vacuum time 4 s, filling vacuum time 0 s, rinsing cycles 2, and filling cycles 1. The development of the HPTLC plates was realized by the Automated Multiple Development 2 (AMD 2, CAMAG, Muttenz, Switzerland). The OTPs, their oxons, and environmental samples were separated with an eluent mixture of cyclohexane, dichloromethane, and acetone in different proportions and with increasing migration distances (Fig. S2). After each development step, a drying step of 3 min under vacuum followed. The final migration distance was 80 mm and the whole procedure took approximately 45 min. In addition, a simpler development process was used containing only the last step of the previous described method.
After chromatographic development, 10 mL of freshly prepared NBS (100 µg/mL) was sprayed onto the HPTLC plates with a glass reagent sprayer, followed by a 5-min incubation at room temperature. The following AChE-I assay was performed in parts according to Mendoza et al., Stütz et al., and Weins and Jork. AChE was buffered in TRIS/HCl at a pH of 7.8 (2.5 U/mL). The AChE solution was either sprayed onto the HPTLC plates with a glass reagent sprayer until the plates were evenly moist (approx. 10 mL) or the plates were immersed in the AChE solution using the Chromatogram Immersion Device 3 (CID 3, CAMAG, Muttenz, Switzerland). The immersion volume, speed, time, and depth were approx. 200 mL, 2.5 cm/s, 2 s, and approx. 85 mm, respectively. Afterward, the plates were placed separately in closed plastic boxes, which contained paper towels moistened with water to gain a saturated atmosphere. An incubation at 37 °C for 5 min followed. The substrate indoxyl acetate was freshly prepared in methanol at a concentration of 20 mg/mL and 5 mL was sprayed onto the HPTLC plates with a glass reagent sprayer. During 45-min incubation time at room temperature, AChE cleaves the substrate into indoxyl and acetate. The indoxyl reacts with oxygen to the blue indigo dye. When AChE was inhibited, no indigo was produced and the spot stayed white. The TLC Scanner 3 (CAMAG, Muttenz, Switzerland) was used to scan each track on the plates at 670 nm using the fluorescence mode without optical filter. The CAMAG-embedded software Wincats (Vers. 1.4.9) was used to provide chromatograms of each track and to evaluate inhibition zones.
Several amounts of an OTP mix and an oxon mix were applied on HPTLC plates (Tab. S2) and tested as described in the “Combination of HPTLC and AChE-inhibition assay” section. Three plates were used for each dilution series. The application volume was 10 µL for investigating OTPs with following oxidation and 100 µL for testing OTPs without following oxidation. The application volume for the oxons was 10 µL. They were tested without oxidation step also in triplicates. The peak heights were used for evaluation. Only peaks that have a signal-to-noise ratio ≥ 3 were considered in the evaluation. The height next to the respective peak defines the noise. […]

Compound | IC80 [1] [µg/mL] | IC20 [1] [ng/mL] | LOD immersion method (first detected AChE-I peak with signal-to-noise ratio ≥ 3) [2] [ng/spot] | IC10 (10% AChE inhibition), best fit [2] [ng/spot] | IC20 (20% AChE inhibition), best fit [2] [ng/spot] | IC50 (50% AChE inhibition), best fit [2] [ng/spot] | IC80 (80% AChE inhibition), best fit [2] [ng/spot] | IC50 [1] [nM]
CCOP(=O)(OCC)Oc1nc(Cl)c(Cl)cc1Cl [Chlorpyrifos-oxon] | 0.016 (≈ 0.0478 µM) | 3.8 (≈ 0.0114 µM) | 0.25 | 0.32 | 0.57 | 1.5 | 4.0 | –
CCOC(=O)CC(SP(=O)(OC)OC)C(=O)OCC (stereo not drawn) [Malaoxon, malaoxon] | 0.042 (≈ 0.134 µM) | 3.5 (≈ 0.0111 µM) | 0.1 | 0.14 | 0.24 | 0.60 | 1.5 | 38.2
